Laboratory results published in the supplement of paper PMC10307832.

What was measured:
Assay in all cases: relative viability (nuclei count vs DMSO), 5 days (fraction); higher = more cells survive
[1] = compound: NCC(=O)Nc1ccc(-n2nc(C(F)(F)F)cc2-c2ccc3c(ccc4ccccc43)c2)cc1 + COc1cccc2cc(-c3nc([C@H]4CC[C@H](C(=O)O)CC4)n4ncnc(N)c34)[nH]c12 [OSI-027] (partner 0.5 µM)
Method in brief: (§1)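 Five library-drug doses in √10 steps were combined with a fixed anchor-drug dose, or a single drug was given alone, by pin tool to lung cancer cell lines in 1536-well plates the day after seeding. Nuclei were stained and counted after 5 days. Relative viability is the nuclei count in treated wells over that in vehicle wells, taken as the median of duplicate plates.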

[2] = compound: NCC(=O)Nc1ccc(-n2nc(C(F)(F)F)cc2-c2ccc3c(ccc4ccccc43)c2)cc1 + C[C@@H](Oc1cc(-c2cnn(C3CCNCC3)c2)cnc1N)c1c(Cl)ccc(F)c1Cl [Crizotinib] (partner 1 µM)
Method in brief: as §1

[3] = compound: NCC(=O)Nc1ccc(-n2nc(C(F)(F)F)cc2-c2ccc3c(ccc4ccccc43)c2)cc1 + O=C(c1cc(Cc2n[nH]c(=O)c3ccccc23)ccc1F)N1CCN(C(=O)C2CC2)CC1 [Olaparib] (partner 8 µM)
Method in brief: as §1

[4] = compound: NCC(=O)Nc1ccc(-n2nc(C(F)(F)F)cc2-c2ccc3c(ccc4ccccc43)c2)cc1 + Nc1ncn([C@H]2C[C@H](O)[C@@H](CO)O2)c(=O)n1 [Decitabine] (partner 2 µM)
Method in brief: as §1

Cell Line	relative viability ([1]; first compound 0.02 µM)	relative viability ([1]; first compound 0.06325 µM)	relative viability ([1]; first compound 0.2 µM)	relative viability ([1]; first compound 0.6325 µM)	relative viability ([1]; first compound 2 µM)	relative viability ([2]; first compound 0.02 µM)	relative viability ([2]; first compound 0.06325 µM)	relative viability ([2]; first compound 0.2 µM)	relative viability ([2]; first compound 0.6325 µM)	relative viability ([2]; first compound 2 µM)	relative viability ([3]; first compound 0.02 µM)	relative viability ([3]; first compound 0.06325 µM)	relative viability ([3]; first compound 0.2 µM)	relative viability ([3]; first compound 0.6325 µM)	relative viability ([3]; first compound 2 µM)	relative viability ([4]; first compound 0.02 µM)	relative viability ([4]; first compound 0.06325 µM)	relative viability ([4]; first compound 0.2 µM)	relative viability ([4]; first compound 0.6325 µM)	relative viability ([4]; first compound 2 µM)
COR-L23	0.765	0.894	0.836	0.693	0.755	0.825	0.638	0.823	0.703	0.631	0.368	0.368	0.352	0.393	0.366	0.437	0.434	0.475	0.413	0.309
ABC-1	0.558	0.409	–	0.471	0.542	1.33	1.77	–	1.04	0.992	0.594	0.671	–	0.921	0.78	0.917	1.02	–	0.954	1.13
NCI-H522	–	0.785	0.697	0.699	0.713	–	–	–	–	–	0.666	0.777	0.721	0.685	0.656	0.638	0.619	0.673	0.681	0.608
NCI-H838	0.406	0.461	0.428	0.425	0.469	0.856	0.903	0.879	0.813	0.761	0.853	0.766	0.815	0.592	0.572	0.489	0.494	0.504	0.441	0.335
SW 900	–	0.54	0.627	0.648	0.507	–	–	–	–	–	0.86	0.881	0.88	0.693	0.994	0.43	0.452	0.607	0.406	0.444
A549	–	–	–	–	–	0.762	0.755	0.774	0.767	0.826	0.294	0.291	0.339	0.29	0.239	0.263	0.249	0.2	0.257	0.31
A-427	–	0.454	0.438	0.496	0.457	0.87	0.848	1.04	0.935	0.865	0.701	0.742	0.679	0.776	0.781	0.502	0.544	0.583	0.545	0.57
NCI-H1792	0.657	–	0.824	0.722	0.803	1.01	1.02	0.976	1	0.945	0.597	0.518	0.404	0.385	0.511	0.705	0.569	0.479	0.605	0.582
LCLC-97TM1	0.656	0.567	0.503	0.625	0.606	0.344	0.34	–	0.348	0.29	0.538	0.421	0.317	0.409	0.364	0.237	0.24	0.252	0.19	0.221
NCI-H1703	–	–	–	–	–	0.593	0.657	0.924	0.621	0.951	0.498	0.356	0.644	0.367	0.368	–	–	–	–	–
LCLC-103H	0.412	0.43	0.443	0.575	0.429	1.16	1.01	1.1	1.02	0.977	0.685	0.793	0.787	0.765	0.752	0.735	0.742	0.809	0.763	0.748
PC-3 [JPC-3]	0.802	0.761	0.777	0.715	0.872	1.01	1.03	0.996	0.959	0.99	1.19	1.2	1.22	1.08	1.18	0.818	0.854	0.768	0.863	0.777
Calu-6	–	–	–	–	–	0.862	0.854	0.853	0.838	0.774	0.568	0.578	0.553	0.562	0.571	–	–	–	–	–
NCI-H1648	0.248	0.262	0.257	0.227	0.273	–	–	–	–	–	0.577	1.03	1.02	0.649	0.56	0.577	0.515	0.479	0.549	0.445
EBC-1	–	–	–	–	–	0.178	0.236	0.204	0.198	0.25	0.693	0.774	0.836	0.623	0.7	–	–	–	–	–
NCI-H1299	–	–	–	–	–	0.97	0.969	0.991	0.944	1	0.96	0.916	0.977	0.918	0.998	–	–	–	–	–
NCI-H2228	0.672	0.535	0.904	0.644	0.584	0.56	0.652	0.603	0.544	0.493	0.354	0.641	0.827	0.52	0.633	–	–	–	–	–
NCI-H2342	0.666	0.726	0.635	0.539	0.648	–	–	–	–	–	0.623	0.477	0.434	0.447	0.422	0.653	0.775	0.788	0.709	0.744
IA-LM	–	–	–	–	–	0.775	0.573	1.02	0.797	0.742	0.986	0.722	0.951	0.896	1	–	–	–	–	–
NCI-H1793	0.26	0.263	0.321	0.276	0.251	–	–	–	–	–	1.05	0.957	0.921	0.852	1.02	0.518	0.459	0.549	0.494	0.487
CAL-12T	0.619	0.651	0.644	0.604	0.621	0.682	0.73	0.591	0.716	0.722	0.761	0.735	0.659	0.711	0.765	–	–	–	–	–
